What follows are molecules tested on TNF-α production (assay: In vitro inhibition of TNF-α production by 1H-imidazoquinolines).
Type: cell-based

Row | Molecule | IC50 [µM]
1 | 4-({2-[(4-chlorophenyl)amino]-1-methyl-1H-benzimidazol-5-yl}oxy)-N-1,3-thiazol-2-ylpyridine-2-carboxamide [Example 9] | 0.205
2 | 1-[2-(methyloxy)phenyl]-4-{[3,4,5-tris(methyloxy)phenyl]carbonyl} piperazine [Example 16] | 8.02
3 | COc1cccc(C(=O)N2CCc3cc(OC)c(OC)cc3C2C)c1 (stereo not drawn) [Example 22] | > 10
4 | 3-pentyl-7-[(4-phenylpiperazin-1-yl)carbonyl]-2-thioxo-2,3-dihydroquinazolin-4(1H)-one [Example 18] | > 10
5 | CNC(=O)c1cc(Oc2ccc3[nH]c(Nc4ccccc4C(C)C)nc3c2)ccn1 [Example 2, N-methyl-4-[(2-{[2-(1-methylethyl)phenyl]amino}-1H-benzimidazol-5-yl)oxy]pyridine-2-carboxamide] | 4.81
6 | 3-({4-[(2E)-3-phenylprop-2-enyl]piperazin-1-yl}carbonyl)-7-oxabicyclo[2.2.1]heptane-2-carboxylic acid [Example 15] | 3.68
7 | CCOc1ccccc1C(=O)N1CCN(c2cccc(Cl)c2)CC1 [Example 14, 1-(3-chlorophenyl)-4-{[2-(ethyloxy)phenyl]carbonyl}-piperazine] | 1.38
8 | 3-[(4-pyridin-2-ylpiperazin-1-yl)carbonyl]-7-oxabicyclo[2.2.1]heptane-2-carboxylic acid [Example 17] | 2.67
9 | 1-[(3-fluorophenyl)carbonyl]-4-{[4-(trifluoromethyl)phenyl] methyl}piperazine [Example 12] | 3.66
